Assay results published in US20070032505A1, “Crystalline form of gatifloxacin” (priority 2003, published 2007).
Values joined by “and” are separate entries in the source; they are usually repeats but may differ in a detail not shown here. Equal entries are not always repeated.

What was measured:
[1] = disintegration and dissolution rate properties; type: physicochemical; conditions: form containing between 2.5 and 4.5% of water by weight
[2] = stability test: water content (Karl-Fischer) and powder X-ray diffractogram in contact with the atmosphere at room temperature; type: physicochemical
Text: The new crystalline form of gatifloxacin which is obtainable by this process has an initial water content ranging between 0.8 and 1.6% and stabilises with a water content ranging between 2.5 and 4.5% by weight, when it is in contact with the atmosphere at room temperature and with a relative humidity comprised between 20 and 70%, and it remains stable for at least 2 months in such conditions.
The crystalline form of gatifloxacin object of the present invention is characterized by its powder X-ray diffractogram (FIG. 1), ^13C nuclear magnetic resonance spectrum (FIG. 3) and analysis of water content by the Karl-Fischer method.
For recording the powder X-ray diffractograms a PHILIPS X'Pert automatic diffractometer equipped with a Cu tube and a graphite secondary monochromator of the following technical specifications was used: • Cu wavelength Kα: 1.5419 Å; • receiving slit: 0.1 mm; • Soller: 0.04 radians; • dispersion slit and divergence slit: 1°
The tube worked at 40 kV and 50 mA. Sweeping was carried out continuously in the 2θ interval between 5 and 40° with pass of 0.03° and 1-second pass time.

## COc1c(N2CCNC(C)C2)c(F)cc2c(=O)c(C(=O)O)cn(C3CC3)c12 (centres unmarked) [form I gatifloxacin, 1-cyclopropyl-6-fluoro-1,4-dihydro-ε-methoxy-7-(3-methyl-1-piperazinyl)-4-oxo-3-quinolinecarboxylic acid]
[1]
  properties of disintegration and dissolution rate: excellent
[2]; 3 hours, room temperature, in contact with the atmosphere
  % water by weight: 2.2 % by weight
[2]; 6 hours, room temperature, in contact with the atmosphere
  % water by weight: 2.3 % by weight
[2]; 3 days, room temperature, in contact with the atmosphere
  % water by weight: 3.22 % by weight and 3.2 % by weight
[2]; 13 days, room temperature, in contact with the atmosphere
  % water by weight: 2.9 % by weight
[2]; 17 days, room temperature, in contact with the atmosphere
  % water by weight: 3.0 % by weight
[2]; 68 days, room temperature, in contact with the atmosphere
  % water by weight: 3.3 % by weight
[2]; longer if relative humidity lower than 20%
  period of time to stabilise: three
[2]; room temperature, in contact with the atmosphere, up to 68 days
  powder X-ray diffractogram over the stability test period: remains substantially unchanged
[2]; room temperature, relative humidity between 20 and 70%
  time the water content remains stable: at least 2 months
[2]; time 0 (at the time of taking it out of the desiccator)
  % water by weight: 1.5 % by weight
